ChEMBL document CHEMBL2029246, “Identification of benzoxazole analogs as novel, S1P(3) sparing S1P(1) agonists” (Bioorg Med Chem Lett, 2012)
Calls of active or inactive are those of the source. No cut-off for these calls is given here.

Legend:
[1] = biological target: Sphingosine 1-phosphate receptor 1 (Homo sapiens, UniProt P21453); assay: Agonist activity at SIP1 receptor by tango assay; assay type: functional
[2] = biological target: Sphingosine 1-phosphate receptor 3 (Homo sapiens, UniProt Q99500); assay: Agonist activity at human SIP3 receptor assessed as calcium mobilization by GeneBLAzer assay; assay type: functional
Homo sapiens = species on record: Homo sapiens; assay: Selectivity ratio of EC50 for SIP1 receptor to EC50 for human SIP3 receptor
[3] = Cmax in mouse at 2 mg/kg, po; assay type: ADME, organism-based; parameters: dose 2 mg/kg, route oral; settings: in vivo
Mus musculus [4] = assay: Lymphopenia activity in mouse assessed as reduction in blood lymphocytes at 1 mg/kg after 4 hrs relative to control; assay type: functional; parameters: scale not given: the % may be the effect or the level left
[5] = Half life in mouse at 2 mg/kg, po; assay type: ADME, organism-based; parameters: dose 2 mg/kg, route oral; settings: in vivo
[6] = Clearance in iv dosed mouse; assay type: ADME, organism-based; settings: in vivo
Mus musculus [7] = assay: Lymphopenic activity in mouse assessed as reduction in blood lymphocytes at 1 mg/kg after 24 hrs relative to control; assay type: functional, organism-based; parameters: dose 1 mg/kg
[8] = AUC (0 to 24 hrs) in mouse at 2 mg/kg, po; assay type: ADME, organism-based; parameters: time < 24 hr, dose 2 mg/kg, route oral; settings: plasma
[9] = Ratio of drug level in brain to blood in iv dosed mouse after 4 hrs; assay type: ADME, organism-based; settings: read-out: BBR
[10] = Oral bioavailability in mouse at 2 mg/kg; assay type: ADME, organism-based; settings: in vivo
[11] = Ratio of drug level in brain to blood in iv dosed mouse after 1 hr; assay type: ADME, organism-based; settings: read-out: BBR
[12] = Volume of distribution in iv dosed mouse; assay type: ADME, organism-based; settings: in vivo
Mus musculus [13] = species on record: Mus musculus; assay: Lymphopenic activity in C57BL/6 mouse assessed as reduction in blood lymphocytes relative to control; assay type: functional; parameters: scale not given: the % may be the effect or the level left
Mus musculus [14] = species on record: Mus musculus; assay: Lymphopenic activity in C57BL/6 mouse assessed as reduction in blood lymphocytes after 4 to 8 weeks relative to control; assay type: functional, organism-based

Chain of Sphingosine 1-phosphate receptor 3 (Q99500 whole entry): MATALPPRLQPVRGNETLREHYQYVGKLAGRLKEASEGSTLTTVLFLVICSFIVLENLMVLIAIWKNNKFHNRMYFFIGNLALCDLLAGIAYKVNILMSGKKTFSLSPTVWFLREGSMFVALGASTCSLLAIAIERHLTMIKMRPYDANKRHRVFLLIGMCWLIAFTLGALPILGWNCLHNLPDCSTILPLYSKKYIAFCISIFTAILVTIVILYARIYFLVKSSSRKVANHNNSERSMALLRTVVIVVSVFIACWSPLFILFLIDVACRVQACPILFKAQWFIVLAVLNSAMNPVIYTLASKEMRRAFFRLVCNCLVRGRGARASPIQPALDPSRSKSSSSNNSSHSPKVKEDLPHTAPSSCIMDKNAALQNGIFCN
Chain of Sphingosine 1-phosphate receptor 1 (P21453 whole entry): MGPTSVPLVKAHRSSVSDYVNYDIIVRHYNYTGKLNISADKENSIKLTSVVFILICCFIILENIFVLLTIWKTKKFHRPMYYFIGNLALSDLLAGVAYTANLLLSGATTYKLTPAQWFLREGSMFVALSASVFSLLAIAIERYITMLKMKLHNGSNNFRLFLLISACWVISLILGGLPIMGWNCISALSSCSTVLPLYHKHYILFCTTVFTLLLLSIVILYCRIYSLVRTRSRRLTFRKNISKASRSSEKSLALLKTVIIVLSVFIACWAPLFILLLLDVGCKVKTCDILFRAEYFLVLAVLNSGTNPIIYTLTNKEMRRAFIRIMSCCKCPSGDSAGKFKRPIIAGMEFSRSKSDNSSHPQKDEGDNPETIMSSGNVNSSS

Compound	EC50 [1] [nM]	EC50 [2] [nM]	also measured
O=C(O)CCCCCc1cn2cc(-c3ccc(-c4ccccc4)c(C(F)(F)F)c3)nc2s1	63.1	> 10000	–
O=C(O)CCCCCc1cnc2oc(-c3ccc(-c4ccccc4)c(C(F)(F)F)c3)nc2c1	0.316	> 10000	–
O=C(O)CCCCCc1ccc2[nH]c(-c3ccc(-c4ccccc4)c(C(F)(F)F)c3)cc2c1	126	> 10000	–
CC(C)Oc1ccc(-c2nc(-c3cccc4c3ccn4CCC(=O)O)no2)cc1Cl	0.01	–	Ratio EC50 (Homo sapiens): 1e+06
CC(C)Oc1ccc(-c2nc(-c3cccc4c3c(Cl)cn4CCC(=O)O)no2)cc1Cl	0.0251	> 10000	–
O=C(O)CCNCCc1ccc2oc(-c3ccc(-c4ccccc4)c(C(F)(F)F)c3)nc2c1	0.0316	200	–
O=C(O)C1CCN(c2ccc3oc(-c4ccc(-c5ccccc5)c(C(F)(F)F)c4)nc3c2)CC1	0.631	> 3160	Cmax [3]: 1070 ng/mL; Activity (Mus musculus [4]): 37%; half-life [5]: 5.4 h; clearance [6]: 3.68 mL/min/kg; Activity (Mus musculus [7]): inactive; AUC(0-t) at 24 h [8]: 10300 ng·h/mL; Kp at 4 h [9]: 3.73; bioavailability [10]: > 100%; Kp at 1 h [11]: 1.45; Vd [12]: 1.48 L/kg
O=C(O)C1CCCN(CCCc2ccc3oc(-c4ccc(-c5ccccc5)c(C(F)(F)F)c4)nc3c2)C1 (centres undefined)	0.501	2000	–
CC(C)Oc1ccc(-c2nc3cc(CCCCCC(=O)O)cnc3o2)cc1Cl	158	> 10000	–
CC(C)Oc1ncc(-c2nc3cc(CCCCCC(=O)O)cnc3o2)cc1C(F)(F)F	6.31	> 10000	–
CN(CCCc1ccc2oc(-c3ccc(-c4ccccc4)c(C(F)(F)F)c3)nc2c1)CC(=O)O	0.316	1000	–
O=C(O)C1CCN(CCc2ccc3oc(-c4ccc(-c5ccccc5)c(C(F)(F)F)c4)nc3c2)CC1	0.158	501	–
O=C(O)CN1CCN(c2ccc3oc(-c4ccc(-c5ccccc5)c(C(F)(F)F)c4)nc3c2)CC1	0.398	2000	–
O=C(O)CCCCCc1ccn2cc(-c3ccc(-c4ccccc4)c(C(F)(F)F)c3)nc2c1	398	> 10000	–
CCCCCCCCc1ccc(CCC(N)(CO)CO)cc1.Cl [FINGOLIMOD HYDROCHLORIDE]	–	–	Activity (Mus musculus [13]): 20%; Activity (Mus musculus [14]): inactive
O=C(O)C1CCN(CCCc2ccc3oc(-c4ccc(-c5ccccc5)c(C(F)(F)F)c4)nc3c2)CC1	0.794	501	–
O=C(O)CC1CCN(c2ccc3oc(-c4ccc(-c5ccccc5)c(C(F)(F)F)c4)nc3c2)CC1	1.26	1260	–

Compound	EC50 [1] [nM]	EC50 [2] [nM]	also measured
CC(C)Oc1ccc(-c2nc3cc(CCCCC(=O)O)cnc3o2)cc1Cl	158	> 10000	–
O=C(O)C1CN(CCc2ccc3oc(-c4ccc(-c5ccccc5)c(C(F)(F)F)c4)nc3c2)C1	0.398	794	–
O=C(O)CCN1CCC(c2ccc3oc(-c4ccc(-c5ccccc5)c(C(F)(F)F)c4)nc3c2)CC1	0.0794	1000	–
CC(C)Oc1ccc(-c2nc3cc(C(=O)O)cnc3o2)cc1Cl	> 3160	> 10000	–
CC(C)Oc1ccc(-c2nc3cc(CCCC(=O)O)cnc3o2)cc1Cl	1000	> 10000	–
O=C(O)C1CN(CCCc2ccc3oc(-c4ccc(-c5ccccc5)c(C(F)(F)F)c4)nc3c2)C1	0.1	126	–
O=C(O)CCCCCc1ccn2nc(-c3ccc(-c4ccccc4)c(C(F)(F)F)c3)nc2c1	126	> 10000	–
CC(C)Oc1ccc(-c2nc3cc(CCC(=O)O)cnc3o2)cc1Cl	> 3160	> 10000	–
O=C(O)CCCCCc1ccc2oc(-c3ccc(-c4ccccc4)c(C(F)(F)F)c3)nc2c1	0.398	> 10000	–
O=C(O)CCCCCc1cnc2oc(-c3cc(-c4ccccc4)c(C(F)(F)F)s3)nc2c1	398	> 10000	–
CC(C)Oc1ccc(-c2nc3cc(CC(=O)O)cnc3o2)cc1Cl	> 3160	> 10000	–
O=C(O)C1CN(c2ccc3oc(-c4ccc(-c5ccccc5)c(C(F)(F)F)c4)nc3c2)C1	10	2000	–
O=C(O)CNCCCc1ccc2oc(-c3ccc(-c4ccccc4)c(C(F)(F)F)c3)nc2c1	0.0316	251	Ratio EC50 (Homo sapiens): > 1000
CC(C)Oc1ccc(-c2nc3cc(CCCCCC(=O)O)cnc3o2)cc1C(F)(F)F	20	> 10000	–
O=C(O)CCCCCc1cnc2sc(-c3ccc(-c4ccccc4)c(C(F)(F)F)c3)nc2c1	10	> 10000	–
CC(C)Oc1ncc(-c2nc3cc(CCCCCC(=O)O)cnc3o2)cc1Cl	1000	> 10000	–
O=C(O)CN1CCC(c2ccc3oc(-c4ccc(-c5ccccc5)c(C(F)(F)F)c4)nc3c2)CC1	1	2000	–
